In patent US11753407B2, “Compounds for treating spinal muscular atrophy” (PTC Therapeutics, Inc., priority 2012, dated 2023):

Tests used:
[1] = system: SMN2 minigene mRNA (SMN2-A minigene) in HEK293H cells; assay: SMN2 minigene mRNA splicing RT-qPCR assay in cultured cells; type: cell-based, human; settings: Homo sapiens, HEK293-H; concentration increasing full length SMN2 mRNA 1.5-fold relative to vehicle-treated cells; HEK293H cells with SMN2-A minigene, 24 hours, 7-point concentration data; read-out: EC1.5x for production of full length SMN2 mRNA
How it was run: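 Stable SMN2-A minigene HEK293H; cpd 7-pt 3.16-fold series, 200× in DMSO, 24 h, 37 °C, n=2. Lysates → multiplex RT-qPCR (minigene FL + GAPDH), efficiency-corrected ΔΔCt vs vehicle. EC1.5× = 1.5-fold FL mRNA gain.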

[2] = system: Smn protein in SMA patient fibroblast cells (GM03813); assay: Smn protein assay in cultured cells (SMN HTRF); type: cell-based, human; settings: SMA patient fibroblast cells, 48 hours; for EC1.5x for Smn protein expression: 7-point concentration curve, SMN HTRF, concentration producing 1.5 times Smn protein vs DMSO vehicle control; for maximum fold (Fold) increase of Smn protein: 7-point concentration data, fold relative to vehicle control
How it was run: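 Fibroblasts, SMA patient; 5,000 cells/well; 7-pt curve, 3.16-fold serial dilution; 48 h, 37 °C, 5% CO2; RIPA lysis 1 h RT; anti-SMN d2 + kryptate overnight RT; HTRF 665/620 nm; fold vs DMSO; EC1.5×, max fold.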

| SMILES | melting point [°C] | EC (1.5-fold increase) [1] [µM] | EC1.5x for Smn protein expression [2] | maximum fold (Fold) increase of Smn protein [2] |
| --- | --- | --- | --- | --- |
| COc1ccc(-c2cc(=O)n3cc(N4C[C@H]5CNC[C@H]5C4)ccc3n2)cc1F [Compound 212, 2-(3-fluoro-4-methoxyphenyl)-7-[(3aR,6aS)-hexahydropyrrolo[3,4-c]pyrrol-2(1H)-yl]-4H-pyrido[1,2-a]pyrimidin-4-one] | 195 to 200 | 0.1 to 0.3 | **** (an EC1.5x≤0.3 μM is indicated by four stars (****)) | **** (a fold increase between >1.5 and ≤1.65 is indicated by four stars (****)) |
| COc1cc(-c2cc(=O)n3cc(N4CCN[C@@H](C)C4)ccc3n2)cc(F)c1F [Compound 217, 2-(3,4-difluoro-5-methoxyphenyl)-7-[(3S)-3-methylpiperazin-1-yl]-4H-pyrido[1,2-a]pyrimidin-4-one] | 160 to 164 | 0.3 to 1 | – | *** (a fold increase between >1.35 and ≤1.5 is indicated by three stars (***)) |
| COc1cc(-c2cc(=O)n3cc(N4CCNCC4)ccc3n2)cc(F)c1F [Compound 218, 2-(3,4-difluoro-5-methoxyphenyl)-7-(piperazin-1-yl)-4H-pyrido[1,2-a]pyrimidin-4-one] | 155 to 160 | 0.1 to 0.3 | ** (an EC1.5× between >1 μM and ≤3 μM is indicated by two stars (**)) | *** (a fold increase between >1.35 and ≤1.5 is indicated by three stars (***)) |
| Cc1nc2ccc(-c3cc(=O)n4cc(N5CCNCC5)ccc4n3)cc2s1 [Compound 219, 2-(2-methyl-1,3-benzothiazol-6-yl)-7-(piperazin-1-yl)-4H-pyrido[1,2-a]pyrimidin-4-one] | 218 to 220 | < 0.1 | **** (an EC1.5x≤0.3 μM is indicated by four stars (****)) | **** (a fold increase between >1.5 and ≤1.65 is indicated by four stars (****)) |
| Cc1nc2ccc(-c3cc(=O)n4cc(N5CCN[C@@H](C)C5)ccc4n3)cc2s1 [Compound 221, 2-(2-methyl-1,3-benzothiazol-6-yl)-7-[(3S)-3-methylpiperazin-1-yl]-4H-pyrido[1,2-a]pyrimidin-4-one] | 214 to 216 | < 0.1 | **** (an EC1.5x≤0.3 μM is indicated by four stars (****)) | ***** (a fold increase >1.65 is indicated by five stars (*****)) |
| COc1cccc(-c2cc(=O)n3cc(N4CCNCC4)ccc3n2)n1 [Compound 227, 2-(6-methoxypyridin-2-yl)-7-(piperazin-1-yl)-4H-pyrido[1,2-a]pyrimidin-4-one] | 214 to 218 | 1 to 3 | – | *** (a fold increase between >1.35 and ≤1.5 is indicated by three stars (***)) |
| O=c1cc(-c2cccnc2)nc2ccc(N3CCNCC3)cn12 [Compound 228, 7-(piperazin-1-yl)-2-(pyridin-3-yl)-4H-pyrido[1,2-a]pyrimidin-4-one] | 175 to 178 | 1 to 3 | – | ** (a fold increase between >1.2 and ≤1.35 is indicated by two stars (**)) |
| COc1cncc(-c2cc(=O)n3cc(N4CCNCC4)ccc3n2)c1 [Compound 229, 2-(5-methoxypyridin-3-yl)-7-(piperazin-1-yl)-4H-pyrido[1,2-a]pyrimidin-4-one] | 192 to 195 | 0.3 to 1 | * (An EC1.5× for Smn protein expression between >3 μM and ≤10 μM is indicated by one star (*)) | *** (a fold increase between >1.35 and ≤1.5 is indicated by three stars (***)) |
| C[C@H]1CN(c2ccc3nc(-c4cc(F)cc(C#N)c4)cc(=O)n3c2)CCN1 [Compound 230, 3-fluoro-5-{7-[(3S)-3-methylpiperazin-1-yl]-4-oxo-4H-pyrido[1,2-a]pyrimidin-2-yl}benzonitrile] | 185 to 188 | 0.3 to 1 | ** (an EC1.5× between >1 μM and ≤3 μM is indicated by two stars (**)) | **** (a fold increase between >1.5 and ≤1.65 is indicated by four stars (****)) |
| N#Cc1cc(F)cc(-c2cc(=O)n3cc(N4CCNCC4)ccc3n2)c1 [Compound 231, 3-fluoro-5-[4-oxo-7-(piperazin-1-yl)-4H-pyrido[1,2-a]pyrimidin-2-yl]benzonitrile] | 238 to 244 | 0.3 to 1 | ** (an EC1.5× between >1 μM and ≤3 μM is indicated by two stars (**)) | **** (a fold increase between >1.5 and ≤1.65 is indicated by four stars (****)) |
| COc1ccc(-c2cc(=O)n3cc(N4C[C@H](O)[C@@H](N5CCCC5)C4)ccc3n2)cc1F [Compound 232, 2-(3-fluoro-4-methoxyphenyl)-7-[(3′S,4′S)-4′-hydroxy-1,3′-bipyrrolidin-1′-yl]-4H-pyrido[1,2-a]pyrimidin-4-one] | 226 to 232 | 1 to 3 | – | * (A maximum fold increase of ≤1.2 is indicated by one star (*)) |

Second part, led by results:

| melting point [°C] | SMILES | EC (1.5-fold increase) [1] [µM] | EC1.5x for Smn protein expression [2] | maximum fold (Fold) increase of Smn protein [2] |
| --- | --- | --- | --- | --- |
| 204 to 210 | COc1ccc(-c2cc(=O)n3cc(N4C[C@H]5CN(C)C[C@H]5C4)ccc3n2)cc1F [Compound 213, 2-(3-fluoro-4-methoxyphenyl)-7-[(3aR,6aS)-5-methylhexahydropyrrolo[3,4-c]pyrrol-2(1H)-yl]-4H-pyrido[1,2-a]pyrimidin-4-one] | 0.1 to 0.3 | **** (an EC1.5x≤0.3 μM is indicated by four stars (****)) | *** (a fold increase between >1.35 and ≤1.5 is indicated by three stars (***)) |
| 145 to 148 | COc1ccc(-c2cc(=O)n3cc(C4CCN(CCO)CC4)ccc3n2)cc1OC [Compound 214, 2-(3,4-dimethoxyphenyl)-7-[1-(2-hydroxyethyl)piperidin-4-yl]-4H-pyrido[1,2-a]pyrimidin-4-one] | 0.3 to 1 | ** (an EC1.5× between >1 μM and ≤3 μM is indicated by two stars (**)) | **** (a fold increase between >1.5 and ≤1.65 is indicated by four stars (****)) |
| 130 to 135 | COc1cc(-c2cc(=O)n3cc(N4CCN[C@@H](C)C4)ccc3n2)ccc1F [Compound 215, 2-(4-fluoro-3-methoxyphenyl)-7-[(3S)-3-methylpiperazin-1-yl]-4H-pyrido[1,2-a]pyrimidin-4-one] | 0.3 to 1 | – | *** (a fold increase between >1.35 and ≤1.5 is indicated by three stars (***)) |
| 170 to 172 | COc1cc(-c2cc(=O)n3cc(N4CCNCC4)ccc3n2)ccc1F [Compound 216, 2-(4-fluoro-3-methoxyphenyl)-7-(piperazin-1-yl)-4H-pyrido[1,2-a]pyrimidin-4-one] | 0.3 to 1 | – | *** (a fold increase between >1.35 and ≤1.5 is indicated by three stars (***)) |
| 208 to 216 | CN[C@H]1CCN(c2ccc3nc(-c4ccc(OC)c(F)c4)cc(=O)n3c2)C1 [Compound 222, 2-(3-fluoro-4-methoxyphenyl)-7-[(3S)-3-(methylamino)pyrrolidin-1-yl]-4H-pyrido[1,2-a]pyrimidin-4-one] | 0.3 to 1 | – | *** (a fold increase between >1.35 and ≤1.5 is indicated by three stars (***)) |
| 163 to 170 | CNCC1CCN(c2ccc3nc(-c4ccc(OC)c(F)c4)cc(=O)n3c2)CC1 [Compound 223, 2-(3-fluoro-4-methoxyphenyl)-7-{4-[(methylamino)methyl]piperidin-1-yl}-4H-pyrido[1,2-a]pyrimidin-4-one] | 0.3 to 1 | – | *** (a fold increase between >1.35 and ≤1.5 is indicated by three stars (***)) |
| 193 to 198 | COc1ccc(-c2cc(=O)n3cc(N4CC[C@H](N)C4)ccc3n2)cc1F [Compound 224, 7-[(3S)-3-aminopyrrolidin-1-yl]-2-(3-fluoro-4-methoxyphenyl)-4H-pyrido[1,2-a]pyrimidin-4-one] | 0.3 to 1 | *** (an EC1.5× between >0.3 μM and ≤1 μM is indicated by three stars (***)) | **** (a fold increase between >1.5 and ≤1.65 is indicated by four stars (****)) |
| 197 to 202 | COc1ccc(-c2cc(=O)n3cc(N[C@@H]4CCN(C)C4)ccc3n2)cc1F [Compound 225, 2-(3-fluoro-4-methoxyphenyl)-7-{[(3R)-1-methylpyrrolidin-3-yl]amino}-4H-pyrido[1,2-a]pyrimidin-4-one] | 1 to 3 | – | * (A maximum fold increase of ≤1.2 is indicated by one star (*)) |
| 178 to 185 | COc1ccc(-c2cc(=O)n3cc(N4CCC(CN(C)C)CC4)ccc3n2)cc1F [Compound 226, 7-{4-[(dimethylamino)methyl]piperidin-1-yl}-2-(3-fluoro-4-methoxyphenyl)-4H-pyrido[1,2-a]pyrimidin-4-one] | 0.3 to 1 | – | * (A maximum fold increase of ≤1.2 is indicated by one star (*)) |
